Reference: patent US20250262206A1, “USE OF TACHYKININ RECEPTOR 3 INHIBITÓR” (WUHAN UNIVERSITY, priority 2021, published 2025)
Where two headings read alike, the source gives them in different places.

Columns and labels:
C57BL/6J-APCMin/+ mice = experiment: Kidney damage caused by intestinal adenoma in C57BL/6J-APCMin/+ mice; type: in vivo, mouse; conditions: 10 mg/kg/day intraperitoneal, 9 days
Protocol: C57BL/6J-APCMin/+ mice are a mature mammalian intestinal adenoma model and are commonly used to study host consumption caused by tumors.
Methods: Male mice of C57BL/6J in the control group and C57BL/6J-APCMin/+ in the experimental group (7 mice in each group) were fed to 16 weeks of age under normal feeding conditions. When the mice in the experimental group began to lose weight, they were injected intraperitoneally with Fezolinetant (0, 10 mg/kg/day) for 9 consecutive days, and the body weight and urine output were measured, and the kidneys were stained to observe the tubular morphology.

[1] = system: hot flashes in postmenopausal women; conditions: Phase 2 clinical trials; cited from earlier work
[2] = system: Yki activated Drosophila (intestinal tumors); experiment: Drosophila ascites caused by yki intestinal tumors; type: in vivo; conditions: 100 μM in food, yki intestinal tumor Drosophila, 6 days / 8 days
Source text: Overexpression of the activated proto-oncogene yki in Drosophila intestinal stem cells can lead to malignant proliferation of intestinal stem cells, and then the formation of tumors. The formation of tumors seriously damages the secretory function of Drosophila Malpighian tubules, leading to the inability of circulating water in the Drosophila hemolymph to be drained out of the body, and the emergence of a severe ascites phenotype. Methods: Activated yki tumors (genotypes esg-Gal4, UAS-GFP, tub-Gal80TS/+; UAS-yki3SA/+) were induced in the Drosophila intestine by initiating gene expression at 29° C. Drosophilas were fed with food supplemented with DMSO, Fezolinetant (10 μM, 100 μM), and Pavinetant (10 μM, 100 μM), […], and compared with the control group (esg-Gal4, UAS-GFP, tub-Gal80TS/+), to observe phenotypes, detect intestinal tumor growth and systemic glycolipid changes, and count ascites ratios.

cytochrome P450-3A4 = cytochrome P450-3A4 (Homo sapiens, UniProt P08684); conditions: cited from earlier work
Chain of cytochrome P450-3A4 (P08684 whole entry): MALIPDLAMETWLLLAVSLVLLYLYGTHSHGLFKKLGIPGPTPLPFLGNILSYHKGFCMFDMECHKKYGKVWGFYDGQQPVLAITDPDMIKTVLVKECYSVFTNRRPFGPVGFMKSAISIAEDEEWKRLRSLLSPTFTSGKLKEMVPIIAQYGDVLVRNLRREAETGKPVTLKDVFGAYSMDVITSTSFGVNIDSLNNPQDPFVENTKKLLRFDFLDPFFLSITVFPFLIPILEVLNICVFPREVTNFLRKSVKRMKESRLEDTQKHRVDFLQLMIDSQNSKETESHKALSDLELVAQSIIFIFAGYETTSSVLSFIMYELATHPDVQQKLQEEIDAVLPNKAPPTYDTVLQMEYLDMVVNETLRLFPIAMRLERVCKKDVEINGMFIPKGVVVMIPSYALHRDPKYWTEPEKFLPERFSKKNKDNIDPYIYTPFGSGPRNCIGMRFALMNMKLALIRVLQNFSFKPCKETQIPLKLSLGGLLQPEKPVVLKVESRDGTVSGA

[3] = system: MFC tumor mice (C57BL/6J); experiment: Ascites and kidney damage caused by MFC forestomach cancer cells in mice; type: in vivo, mouse; conditions: 50 mg/kg/day intraperitoneal, 5 days
Protocol: MFC tumor (Mouse forestomach carcinoma), a common tumor that may cause ascites, colonizes the peritoneal cavity of mice. With their growth, the tumors may cause severe ascites accumulation and renal tubular damage in mice. Methods: C57BL/6J male mice, 4-6 weeks old. C57BL/6J mice in experimental group (6 mice in each group) were intraperitoneally injected with 1.5×10^7 MFC tumor cells, and 24 hours later, intraperitoneally injected with the inhibitor Pavinetant (0, 10, 50 mg/kg/day), and after 5 days of continuous administration, they were compared with the control group C57BL/6 (6 mice in each group). The body weight, ascites, and urine output were detected, and the kidneys were stained to observe the tubular morphology.

[4] = system: polycystic ovary syndrome; conditions: Phase 2 clinical trials; cited from earlier work

Structure (SMILES) | renal tubular damage (HE staining, tubular dilatation) (C57BL/6J-APCMin/+ mice) | urine output (C57BL/6J-APCMin/+ mice) | effect on hot flashes [1] | ascites in Drosophila [2] | blood glucose in Drosophila [2] | IC50 (cytochrome P450-3A4; midazolam, read-out: in vitro inhibitory IC50, cytochrome P450-3A4 enzyme activity, midazolam testing) | IC50 (cytochrome P450-3A4; testosterone, read-out: in vitro inhibitory IC50, cytochrome P450-3A4 enzyme activity, testosterone testing) | generation of ascites [3] | renal tubular lesions (renal tubular dilation) [3] | effect on polycystic ovary syndrome [4]
Cc1nsc(-c2nnc3n2CCN(C(=O)c2ccc(F)cc2)[C@@H]3C)n1 [Fezolinetant] | significantly restored | significantly restored | significant improvement effect | significantly reduce | normalize |  |  |  |  | 
CC[C@H](NC(=O)c1c(NS(C)(=O)=O)c(-c2ccccc2)nc2ccccc12)c1ccccc1 [Pavinetant] |  |  | significantly improves | significantly reduce | normalize | 7.1 µM | 19.8 µM | significantly inhibit | alleviate | significantly improves
